According to US20240261417A1, “SOS1 DEGRADING AGENT AND PREPARATION METHOD THEREFOR AND APPLICATION THEREOF” (SHANGHAI LEADINGTAC PHARMACEUTICAL CO. LTD., priority 2021, published 2024):
Where two headings read alike, the source gives them in different places.

Biological target: T1, SOS1 protein (Homo sapiens, UniProt Q07889)
T1 sequence (Q07889 1-1333): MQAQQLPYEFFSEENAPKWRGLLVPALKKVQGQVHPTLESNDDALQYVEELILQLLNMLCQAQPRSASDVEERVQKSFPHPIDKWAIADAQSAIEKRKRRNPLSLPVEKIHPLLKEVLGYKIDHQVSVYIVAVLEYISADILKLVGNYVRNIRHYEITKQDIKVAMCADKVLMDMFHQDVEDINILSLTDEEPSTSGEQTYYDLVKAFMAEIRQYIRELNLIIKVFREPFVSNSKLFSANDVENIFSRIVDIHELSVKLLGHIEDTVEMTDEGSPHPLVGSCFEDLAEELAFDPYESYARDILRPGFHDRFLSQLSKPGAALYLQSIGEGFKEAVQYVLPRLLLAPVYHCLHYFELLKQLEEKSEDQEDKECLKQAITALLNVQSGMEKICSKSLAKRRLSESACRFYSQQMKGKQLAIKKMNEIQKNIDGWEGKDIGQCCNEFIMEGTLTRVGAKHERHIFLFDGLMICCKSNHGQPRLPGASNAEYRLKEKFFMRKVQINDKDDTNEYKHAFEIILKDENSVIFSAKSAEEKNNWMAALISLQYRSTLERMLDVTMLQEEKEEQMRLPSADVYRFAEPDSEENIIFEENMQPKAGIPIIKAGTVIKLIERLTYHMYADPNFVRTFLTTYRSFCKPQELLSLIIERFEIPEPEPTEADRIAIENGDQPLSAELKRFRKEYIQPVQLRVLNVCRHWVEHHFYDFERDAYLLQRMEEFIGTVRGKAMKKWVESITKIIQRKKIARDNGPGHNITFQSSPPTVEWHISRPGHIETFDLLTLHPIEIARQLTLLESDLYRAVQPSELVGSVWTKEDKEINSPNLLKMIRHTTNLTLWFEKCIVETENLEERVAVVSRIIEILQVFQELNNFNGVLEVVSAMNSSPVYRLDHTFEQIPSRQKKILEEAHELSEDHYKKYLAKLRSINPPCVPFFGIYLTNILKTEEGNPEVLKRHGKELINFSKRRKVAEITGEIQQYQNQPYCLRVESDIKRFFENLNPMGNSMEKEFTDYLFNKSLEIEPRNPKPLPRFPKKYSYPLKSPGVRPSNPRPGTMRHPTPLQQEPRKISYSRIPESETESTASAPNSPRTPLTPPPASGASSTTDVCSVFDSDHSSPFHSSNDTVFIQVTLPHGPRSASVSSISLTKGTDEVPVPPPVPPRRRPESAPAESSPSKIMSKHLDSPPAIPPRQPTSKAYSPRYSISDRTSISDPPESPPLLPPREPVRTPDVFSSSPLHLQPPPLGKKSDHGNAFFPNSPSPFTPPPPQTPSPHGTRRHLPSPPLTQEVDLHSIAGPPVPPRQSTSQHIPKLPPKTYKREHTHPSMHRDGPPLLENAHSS
Experiment: SOS1 degradation assay (Western blot), NCI-H358 cells
Type: cell-based
Set-up: The degradation of SOS1 by the compounds was investigated on KRAS G12C mutant human non-small cell lung cancer cells NCI-H358; host or cells: NCI-H358 (human cancer cell lines)
Conditions: for DC50: read-out: NCI-H358 (G12C) DC50
Description: The specific procedures were as follows:
0.95 mL of cells were seeded into each well of a 24-well cell culture plate to achieve a cell density of 5×10^5 cells/well; the cell plate was incubated in an incubator at 37° C. with 5% CO2 overnight. Then 50 μL of the compound solution after dilution was added to each of the wells with the corresponding cells, so that the final concentration of the compound was in a range of 0.03-3000 nM. […] After dosing, the cell plate was incubated in an incubator at 37° C. with 5% CO2 for 24 h. […] After the plate was left to stand on ice for 30 min, the protein lysate in each well was transferred to a 1.5 mL centrifuge tube and centrifuged at 15000 g for 20 min at 4° C. The cell lysate supernatant after centrifugation was cryopreserved at −80° C. for testing and was used for determining the degradation level of the SOS1 protein by a WB method. The concentration of total protein in the cell lysate supernatant was determined using the BCA Protein Quantification Kit (Tiangen, PA115-02).
The concentration of total protein in the cell lysate was determined by BCA. The total protein was adjusted to 0.5 μg/μL with PBS and 5× SDS-PAGE protein loading buffer (Beyotime, P0015L), incubated in a water bath at 100° C. for 15 min, incubated in an ice bath on ice for 5 min, centrifuged at 14000 g for 1 min at 4° C., and mixed well as a loading sample for WB. Protein electrophoresis was performed on a precast gel (KeyGEN, KGMGO10W15) with a loading volume of 10 μL (total protein: 5 μg) using a Tris-MOPS-SDS running solution (Adamas, P1598253) at a constant voltage of 120 V for 55 min. After the electrophoresis, the protein on the gel strip was transferred to a PVDF membrane at a constant current of 250 mA for 65 min. After the membrane transfer, the membrane was incubated in 1× QuickBlock blocking buffer (Beyotime, P0235) for 30 min at room temperature. […] The protein map was subjected to gray value analysis by the chemiluminescence imaging system from Clinx. […] Then the degradation rate was calculated by comparing the gray correction value with the gray correction value of the control group. Then nonlinear curve fitting was performed by GraphPad Prism 8 in the logarithmic concentration-inhibition rate to obtain the DC50 and Dmax values of the compounds.

[1] = SOS1 degradation, NCI-H358 cells, 24 h, Western blot
[2] = SOS1 degradation, NCI-H358 cells, 24 h, Western blot, read-out: NCI-H358 (G12C) Dmax

SMILES | DC50 [1] | Dmax [2] | Dmax (NCI-H358, read-out: NCI-H358 (G12C) Dmax) | NCI-H358 (G12C) Dmax [1]
COc1cc2nc(C)nc(N[C@H](C)c3cc(N)cc(C(F)(F)F)c3)c2cc1[C@H]1CC[C@H](C(=O)N2CCC(CCC3CCN(C(=O)c4ccc(Cl)c(N5CCC(=O)NC5=O)c4)CC3)CC2)CC1 [Example 15, 1-(5-(4-(2-(1-((1R,4R)-4-(4-(((R)-1-(3-amino-5-(trifluoromethyl)phenyl)ethyl)amino)-7-methoxy-2-methylquinazolin-6-yl)cyclohexane-1-carbonyl)piperidin-4-yl)ethyl)piperidine-1-carbonyl)-2-chlorophenyl)dihydropyrimidine-2,4(1H,3H)-dione] | 1000 to 10000 nM | < 30% | – | –
COc1cc2nc(C)nc(N[C@H](C)c3cccc(C(F)(F)F)c3F)c2cc1[C@H]1CC[C@H](C(=O)N2CCN(CC3CCC4(CC3)CCN(C(=O)c3ccc(Cl)c(N5CCC(=O)NC5=O)c3)CC4)CC2)CC1 [Example 16, 1-(2-chloro-5-(9-((4-((1R,4R)-4-(4-(((R)-1-(2-fluoro-3-(trifluoromethyl)phenyl)ethyl)amino)-7-methoxy-2-methylquinazolin-6-yl)cyclohexane-1-carbonyl)piperazin-1-yl)methyl)-3-azaspiro[5.5]undecane-3-carbonyl)phenyl)dihydropyrimidine-2,4(1H,3H)-dione] | 500 to 1000 nM | 50 to 80% | – | –
COc1cc2nc(C)nc(N[C@H](C)c3cc(NC(C)=O)cc(C(F)(F)F)c3)c2cc1[C@H]1CC[C@H](C(=O)N2CCN(CC3CCC4(CC3)CCN(C(=O)c3ccc(Cl)c(N5CCC(=O)NC5=O)c3)CC4)CC2)CC1 [Example 17, N-(3-((R)-1-((6-((1R,4R)-4-(4-((3-(4-chloro-3-(2,4-dioxotetrahydropyrimidin-1(2H)-yl)benzoyl)-3-azaspiro[5.5]undecane-9-yl)methyl)piperazine-1-carbonyl)cyclohexyl)-7-methoxy-2-methylquinazolin-4-yl)amino)ethyl)-5-(trifluoromethyl)phenyl)acetamide] | 1000 to 10000 nM | 30 to 50% | – | –
COc1cc2nc(C)nc(N[C@H](C)c3cc(NC(C)C)cc(C(F)(F)F)c3)c2cc1[C@H]1CC[C@H](C(=O)N2CCN(CC3CCC4(CC3)CCN(C(=O)c3ccc(Cl)c(N5CCC(=O)NC5=O)c3)CC4)CC2)CC1 [Example 18, 1-(2-chloro-5-(9-((4-((1R,4R)-4-(4-(((R)-1-(3-(isopropylamino)-5-(trifluoromethyl)phenyl)ethyl)amino)-7-methoxy-2-methylquinazolin-6-yl)cyclohexane-1-carbonyl)piperazin-1-yl)methyl)-3-azaspiro[5.5]undecane-3-carbonyl)phenyl)dihydropyrimidine-2,4(1H,3H)-dione] | 1000 to 10000 nM | – | < 30% | –
COc1cc2nc(C)nc(N[C@H](C)c3cc(N)cc(C(F)(F)F)c3)c2cc1[C@H]1CC[C@H](C(=O)N2CCN(CC3CCC4(CC3)CCN(C(=O)c3cccc(N5CCC(=O)NC5=O)c3)CC4)CC2)CC1 [Example 21, 1-(3-(9-((4-((1R,4R)-4-(4-(((R)-1-(3-amino-5-(trifluoromethyl)phenyl)ethyl)amino)-7-methoxy-2-methylquinazolin-6-yl)cyclohexane-1-carbonyl)piperazin-1-yl)methyl)-3-azaspiro[5.5]undecane-3-carbonyl)phenyl)dihydropyrimidine-2,4(1H,3H)-dione] | 1000 to 10000 nM | 30 to 50% | – | –
COc1cc2nc(C)nc(N[C@H](C)c3cc(N)cc(C(F)(F)F)c3)c2cc1[C@H]1CC[C@H](C(=O)N2CCN(CC3CCC4(CC3)CCN(C(=O)c3ccc(N5CCC(=O)NC5=O)cc3)CC4)CC2)CC1 [Example 22, 1-(4-(9-((4-((1R,4R)-4-(4-(((R)-1-(3-amino-5-(trifluoromethyl)phenyl)ethyl)amino)-7-methoxy-2-methylquinazolin-6-yl)cyclohexane-1-carbonyl)piperazin-1-yl)methyl)-3-azaspiro[5.5]undecane-3-carbonyl)phenyl)dihydropyrimidine-2,4(1H,3H)-dione] | 1000 to 10000 nM | 30 to 50% | – | –
COc1cc2nc(C)nc(N[C@H](C)c3cc(N)cc(C(F)(F)F)c3)c2cc1C1CCC(C(=O)N2CCN(CC3CCC4(CC3)CCN(C(=O)c3ccc(C5CCC(=O)NC5=O)cc3)CC4)CC2)CC1 (stereo partly drawn) [Example 23, 3-(4-(9-((4-((1R,4R)-4-(4-(((R)-1-(3-amino-5-(trifluoromethyl)phenyl)ethyl)amino)-7-methoxy-2-methylquinazolin-6-yl)cyclohexane-1-carbonyl)piperazin-1-yl)methyl)-3-azaspiro[5.5]undecane-3-carbonyl)phenyl)piperidine-2,6-dione] | < 50 nM | – | – | B (when 50≤Dmax (%)<80, the level was B)
COc1cc2nc(C)nc(N[C@H](C)c3cc(N)cc(C(F)(F)F)c3)c2cc1[C@H]1CC[C@H](C(=O)N2CCN(CC3CCC4(CC3)CCN(C(=O)c3ccc(F)c(N5CCC(=O)NC5=O)c3)CC4)CC2)CC1 [Example 24, 1-(5-(9-((4-((1R,4R)-4-(4-(((R)-1-(3-amino-5-(trifluoromethyl)phenyl)ethyl)amino)-7-methoxy-2-methylquinazolin-6-yl)cyclohexane-1-carbonyl)piperazin-1-yl)methyl)-3-azaspiro[5.5]undecane-3-carbonyl)-2-fluorophenyl)dihydropyrimidine-2,4(1H,3H)-dione] | < 50 nM | 80 to 100% | – | –
COc1cc2nc(C)nc(N[C@H](C)c3cc(N)cc(C(F)(F)F)c3)c2cc1[C@H]1CC[C@H](C(=O)N2CCC(CCN(C)CC3CCN(C(=O)c4ccc(Cl)c(N5CCC(=O)NC5=O)c4)CC3)CC2)CC1 [Example 25, 1-(5-(4-(((2-(1-((1R,4R)-4-(4-(((R)-1-(3-amino-5-(trifluoromethyl)phenyl)ethyl)amino)-7-methoxy-2-methylquinazolin-6-yl)cyclohexane-1-carbonyl)piperidin-4-yl)ethyl)(methyl)amino)methyl)piperidine-1-carbonyl)-2-chlorophenyl)dihydropyrimidine-2,4(1H,3H)-dione] | 1000 to 10000 nM | < 30% | – | –
